Results published in US6472348B1, “Pyridone derivatives and herbicides” (Kumiai Chemical Industry Co., Ltd., priority 1996, dated 2002).

What was measured:
[1] = test system: barnyardgrass (Ec); test: Test Example 1: herbicidal effects by paddy field soil treatment; format: in vivo; conditions: 100 g of the active ingredient per 10 ares, 21st day after the application, index 0-5 of Table 47;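 further: grade of growth control; 5 = at least 90%; 4 = 70 to 90%; 3 = 50 to 70%; 2 = 30 to 50%; 1 = 10 to 30%; 0 = under 10%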
How it was run: (§1)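 Greenhouse pot test in flooded paddy soil, dosed at 100 g a.i. per 10 ares; effect scored on day 21.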

[2] = test system: bulrush (Sc); test: as above; format: in vivo; conditions: 100 g of the active ingredient per 10 ares, 21st day after the application, index 0-5 of Table 47;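 further: grade of growth control; 5 = at least 90%; 4 = 70 to 90%; 3 = 50 to 70%; 2 = 30 to 50%; 1 = 10 to 30%; 0 = under 10%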
How it was run: as §1

[3] = test system: monochoria (Mo); test: as above; format: in vivo; conditions: 100 g of the active ingredient per 10 ares, 21st day after the application, index 0-5 of Table 47;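 further: grade of growth control; 5 = at least 90%; 4 = 70 to 90%; 3 = 50 to 70%; 2 = 30 to 50%; 1 = 10 to 30%; 0 = under 10%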
How it was run: as §1

[4] = test system: Digitaria ciliaris (Di); test: Test Example 2: herbicidal effects by upland field soil treatment; format: in vivo; conditions: 100 g of the active ingredient per 10 ares, 21st day after the application, index 0-5 of Table 47;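 further: grade of growth control; 5 = at least 90%; 4 = 70 to 90%; 3 = 50 to 70%; 2 = 30 to 50%; 1 = 10 to 30%; 0 = under 10%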
Source text: (§2) (Test on Herbicidal Effects by Upland Field Soil Treatment)

[5] = test system: barnyardgrass (Ec); test: as above; format: in vivo; conditions: 100 g of the active ingredient per 10 ares, 21st day after the application, index 0-5 of Table 47
Source text: as §2

[6] = test system: common lambsquarters (Ch); test: as above; format: in vivo; conditions: 100 g of the active ingredient per 10 ares, 21st day after the application, index 0-5 of Table 47
Source text: as §2

[7] = test system: pale smartweed (Po); test: as above; format: in vivo; conditions: 100 g of the active ingredient per 10 ares, 21st day after the application, index 0-5 of Table 47
Source text: as §2

[8] = test system: rice flatsedge (Ci); test: as above; format: in vivo; conditions: 100 g of the active ingredient per 10 ares, 21st day after the application, index 0-5 of Table 47
Source text: as §2

[9] = test system: slender amaranth (Am); test: as above; format: in vivo; conditions: 100 g of the active ingredient per 10 ares, 21st day after the application, index 0-5 of Table 47
Source text: as §2

[10] = test system: Diaitaria ciliaris (Di); test: Test Example 3: herbicidal effects by upland field foliage treatment; format: in vivo; parameters: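 grade of growth control; 5 = at least 90%; 4 = 70 to 90%; 3 = 50 to 70%; 2 = 30 to 50%; 1 = 10 to 30%; 0 = under 10%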; conditions: 100 g of the active ingredient per 10 ares, evaluated on the 14th day after treatment
How it was run: (§3)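 Post-emergence upland foliage test. Seedlings grown 2 weeks under glass in pots (120 cm^2) of sand, seed topped with soil; treated on the foliage, kept in greenhouse, then assessed at day 14 using rating standards.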

[11] = test system: barnyardgrass (Ec); test: as above; format: in vivo; parameters: scale not given here; conditions: 100 g of the active ingredient per 10 ares, evaluated on the 14th day after treatment
How it was run: as §3

[12] = test system: common lambsquarters (Ch); test: as above; format: in vivo; parameters: scale not given here; conditions: 100 g of the active ingredient per 10 ares, evaluated on the 14th day after treatment
How it was run: as §3

[13] = test system: pale smartweed (Po); test: as above; format: in vivo; parameters: scale not given here; conditions: 100 g of the active ingredient per 10 ares, evaluated on the 14th day after treatment
How it was run: as §3

[14] = test system: rice flatsedge (Ci); test: as above; format: in vivo; parameters: scale not given here; conditions: 100 g of the active ingredient per 10 ares, evaluated on the 14th day after treatment
How it was run: as §3

[15] = test system: slender amaranth (Am); test: as above; format: in vivo; parameters: scale not given here; conditions: 100 g of the active ingredient per 10 ares, evaluated on the 14th day after treatment
How it was run: as §3

[16] = test system: wheat (Tr); test: Test Example 9: crop plant selectivity by upland field foliage treatment (wheat), phytotoxicity; conditions: dose 1.6 g ai/10a, 14th day after treatment
How it was run: (§4)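 Seeds of wheat, pale smartweed, slender amaranth, common lambsquarters and China jute are sown in sand and grown 2 weeks under glass. Foliage is then treated, culture resumes in the greenhouse, and damage is graded on the 14th day.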

[17] = test system: China jute (Ab); test: Test Example 9: crop plant selectivity by upland field foliage treatment (wheat), herbicidal effects; format: in vivo; parameters: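 grade of growth control; 5 = at least 90%; 4 = 70 to 90%; 3 = 50 to 70%; 2 = 30 to 50%; 1 = 10 to 30%; 0 = under 10%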; conditions: dose 1.6 g ai/10a, 14th day after treatment
How it was run: as §4

[18] = test system: common lambsquarters (Ch); test: as above; format: in vivo; parameters: scale not given here; conditions: dose 1.6 g ai/10a, 14th day after treatment
How it was run: as §4

[19] = test system: pale smartweed (Po); test: as above; format: in vivo; parameters: scale not given here; conditions: dose 1.6 g ai/10a, 14th day after treatment
How it was run: as §4

[20] = test system: slender amaranth (Am); test: as above; format: in vivo; parameters: scale not given here; conditions: dose 1.6 g ai/10a, 14th day after treatment
How it was run: as §4

[21] = test system: soybean (Gl); test: Test Example 10: crop plant selectivity by upland field foliage treatment (soybean), phytotoxicity; conditions: dose 1.6 g ai/10a, 14th day after treatment
Procedure: (§5) (Test on Crop Plant Selectivity by Upland Field Foliage Treatment)
(§6) In a plastic pot (surface area: 600 cm^2) filled with sand, soybean (Gl), pale smartweed (Po), slender amaranth (Am), common lambsquarters (Ch) and China jute (Ab) were sown and cultured in a green house for 2 weeks. […] The plants were then cultured in a green house, and the evaluation of the herbicidal effects and phytotoxicity was conducted on the 14th day after the treatment in accordance with the standards as identified in Table 47.

[22] = test system: China jute (Ab); test: Test Example 10: crop plant selectivity by upland field foliage treatment (soybean), herbicidal effects; format: in vivo; conditions: dose 1.6 g ai/10a, 14th day after treatment
Procedure: as §5, §6

[23] = test system: common lambsquarters (Ch); test: as above; format: in vivo; conditions: dose 1.6 g ai/10a, 14th day after treatment
Procedure: as §5, §6

[24] = test system: pale smartweed (Po); test: as above; format: in vivo; conditions: dose 1.6 g ai/10a, 14th day after treatment
Procedure: as §5, §6

[25] = test system: slender amaranth (Am); test: as above; format: in vivo; conditions: dose 1.6 g ai/10a, 14th day after treatment
Procedure: as §5, §6

[26] = test system: corn (Ze); test: Test Example 11: crop plant selectivity by upland field foliage treatment (corn), phytotoxicity; conditions: upland field foliage treatment, dose 1.6 g ai/10a, 14th day after treatment
How it was run: (§7)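 Corn and the weed species were sown together in sand-filled pots and grown in a greenhouse for 2 weeks before foliar treatment. Herbicidal effect was scored on day 14 after treatment against a graded standard scale, with corn phytotoxicity scored alongside.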

[27] = test system: China jute (Ab); test: Test Example 11: crop plant selectivity by upland field foliage treatment (corn), herbicidal effects; format: in vivo; parameters: scale not given here; conditions: upland field foliage treatment (corn test), dose 1.6 g ai/10a, 14th day after treatment
How it was run: as §7

[28] = test system: common lambsquarters (Ch); test: as above; format: in vivo; parameters: scale not given here; conditions: upland field foliage treatment (corn test), dose 1.6 g ai/10a, 14th day after treatment
How it was run: as §7

[29] = test system: pale smartweed (Po); test: as above; format: in vivo; parameters: scale not given here; conditions: upland field foliage treatment (corn test), dose 1.6 g ai/10a, 14th day after treatment
How it was run: as §7

[30] = test system: slender amaranth (Am); test: as above; format: in vivo; parameters: scale not given here; conditions: upland field foliage treatment (corn test), dose 1.6 g ai/10a, 14th day after treatment
How it was run: as §7

SMILES	Herbicidal effects Ec [1]	Herbicidal effects Sc [2]	Herbicidal effects Mo [3]	Herbicidal effects Di [4]	Herbicidal effects Ec [5]	Herbicidal effects Ch [6]	Herbicidal effects Po [7]	Herbicidal effects Ci [8]	Herbicidal effects Am [9]	Herbicidal effects Di [10]	Herbicidal effects Ec [11]	Herbicidal effects Ch [12]	Herbicidal effects Po [13]	Herbicidal effects Ci [14]	Herbicidal effects Am [15]	Phytotoxicity Tr [16]	Herbicidal effects Ab [17]	Herbicidal effects Ch [18]	Herbicidal effects Po [19]	Herbicidal effects Am [20]	also measured
CCC(=O)c1cc(-c2ccc(C(F)(F)F)n(C)c2=O)c(F)cc1Cl [1-69]	5	5	5	5	5	5	5	5	5	5	5	5	5	5	5	1	5	5	5	5	Phytotoxicity Gl [21]: 2; Herbicidal effects Ab [22]: 5; Herbicidal effects Ch [23]: 5; Herbicidal effects Po [24]: 5; Herbicidal effects Am [25]: 5; Phytotoxicity Ze [26]: 2; Herbicidal effects Ab [27]: 5; Herbicidal effects Ch [28]: 5; Herbicidal effects Po [29]: 5; Herbicidal effects Am [30]: 5
COCSc1cc(-c2ccc(C(F)(F)F)n(C)c2=O)c(Cl)cc1Cl [1-126]	5	5	5	5	5	5	5	5	5	5	5	5	5	5	5	2	5	5	5	5	Phytotoxicity Gl [21]: 2; Herbicidal effects Ab [22]: 5; Herbicidal effects Ch [23]: 5; Herbicidal effects Po [24]: 5; Herbicidal effects Am [25]: 5; Phytotoxicity Ze [26]: 2; Herbicidal effects Ab [27]: 5; Herbicidal effects Ch [28]: 5; Herbicidal effects Po [29]: 5; Herbicidal effects Am [30]: 5
